Read-outs that look alike come from different tables or passages of the source.
How the values were obtained:
Type in all cases: physicochemical
[1] = Water solubility of the solvents; conditions: for Wasserlöslichkeit der Lösungsmittel (%): Säureamide of Tabelle 4; for H2O-Löslichkeit des Lösungsmittels (%) Gew.-% Lösungs-mittel in Wasser: Tabelle 1 solvents
Text: (§1) Beispiele von Säureamiden sind in der Tabelle 4 zusammengefaßt. Bestimmt wurden die Löslichkeiten der Substanzen 1 (Chloridazon) und 2 (Biscarbamat) wie sie in Tabelle 1 aufgeführt sind, sowie die Wasserlöslichkeit der Lösungsmittel.

[2] = Phenmedipham degradation in formulations at various temperatures
Text: Es wurde der Abbau des Phenmedipham bei verschiedenen Temperaturen verfolgt.

[3] = Stability of Phenmedipham in solvents, 24 h storage, HPLC; conditions: 24 Std., read-out: Restwirkstoff an Phenmedipham Wirkstoffgehalt
Method: In der folgenden Tabelle sind die Stabilitätsuntersuchungen von Phenmedipham bei verschiedenenen Temperaturen und konstanter Zeit zusammengefaßt. Es wurden 500 mg technischer Wirkstoff in 25 ml Lösungsmittel gelöst, die Lösungen bei der entsprechend gewählten Temperatur 24 Stunden gelagert und der Restwirkstoffgehalt analytisch mit Hilfe der HPLC-Methode bestimmt.

[4] = Active ingredient stability in solvents (0,002 molar, HPLC); conditions: for remaining at 5 min, 2000 µM: Abbauzeit 5 min; for remaining at 20 min, 2000 µM: Abbauzeit 20 min; for remaining at 1 h, 2000 µM: Abbauzeit 60 min; for remaining at 7 min, 2000 µM: Abbauzeit 7 min; for remaining at 0.5 h, 2000 µM: Abbauzeit 30 min
Text: In der Tabelle 2 wird die Wirkstoffstabilität der oben genannten Substanz 2 in verschiedenen Lösungsmitteln als Beispiel aufgeführt. […] Die Konzentration an Wirkstoff war bei diesen Untersuchungen 0,002 molar. Die Analyse wurde mit Hilfe der Hochdruckflüssigkeitschromatographie (HPLC) durchgeführt.

[5] = Solubility of Substanz 1 and Substanz 2 in solvents at room temperature
Text: as §1

[6] = dimethylformamid (technisch), Dimethylformid (technisch), 50°C, read-out: Wirkstoffgehalt
[7] = dimethylformamid (technisch), Dimethylformid (technisch), 70°C, read-out: Wirkstoffgehalt
[8] = n-methylpyrrolidon, N-Methylpyrrolidon (rein 0,05% H2O), 50°C, read-out: Wirkstoffgehalt
[9] = n-methylpyrrolidone, N-Methylpyrrolidon (rein 0,05% H2O), 30°C, read-out: Wirkstoffgehalt

CCN(CC)C(=O)c1ccccc1 [compound 10]
Wasserlöslichkeit der Lösungsmittel (%) [1]: 3,7%

COC(=O)Nc1cccc(OC(=O)Nc2cccc(C)c2)c1 [Phenmedipham, 3-Methoxycarbonylaminophenyl-N-(3'-methyl-phenyl)-carbamat]
Phenmedipham-Abbau Wirkstoffgehalt ([2]; formulation (g/l): 50 Phenmedipham, 150 Chloridazon, 200 Netzmittel, 50 Emulgiermittel, ad 1000 g Dimethylformamid, 50°C, 4 Wochen, 40320 min): 4,8%
Phenmedipham-Abbau Wirkstoffgehalt ([2]; formulation (g/l): 50 Phenmedipham, 150 Chloridazon, 200 Netzmittel, 50 Emulgiermittel, ad 1000 g Dimethylformamid, Rt, 4 Wochen, 40320 min): 79,5%
Phenmedipham-Abbau Wirkstoffgehalt ([2]; formulation (g/l): 167 Chloridazon, 83 Phenmedipham, 300 N-Methylpyrrolidon, 24 Morpholin, 100 Emulgiermittel, 326 Cyclohexanon-Destillationsrückstände (DE-PS 16 42 216, Beispiel 6/I), 50°C, 1 Stunde): 30,8%
Phenmedipham-Abbau Wirkstoffgehalt ([2]; formulation with N-Methylpyrrolidon and Morpholin (DE-PS 16 42 216, Beispiel 6/I), 50°C, 2 Stunden): 16,4%
Phenmedipham-Abbau Wirkstoffgehalt ([2]; formulation with N-Methylpyrrolidon and Morpholin (DE-PS 16 42 216, Beispiel 6/I), 50°C, 3 Stunden): 12,8%
Phenmedipham-Abbau Wirkstoffgehalt ([2]; formulation with N-Methylpyrrolidon and Morpholin (DE-PS 16 42 216, Beispiel 6/I), 70°C, 1 Stunde): 3,21%
Wirkstoffgehalt ([2]; formulation with mixture of Dimethylformamid and Isophoron instead of Dimethylformamid alone, 4 Wochen, 50° C, 40320 min): ca. 60%
remaining at 24 h ([3]; 2-äthylhexancarbonsäureamid, 2-Äthylhexancarbonsäureamid (Nr. 9 aus Tabelle 4), 50°C): 98.1%
remaining at 24 h ([3]; 2-äthylhexancarbonsäureamid, 2-Äthylhexancarbonsäureamid (Nr. 9 aus Tabelle 4), 70°C): 98%
remaining at 24 h ([3]; dimethylformamid, 50°C): 9.3%
remaining at 24 h ([3]; isophoron, 50°C): 99.3%
remaining at 24 h ([3]; isophoron, 70°C): 96.3%
remaining at 24 h ([3]; n,n-dipropylbuttersäureamid, N,N-Dipropylbuttersäureamid (Nr. 7 aus Tabelle 4), 50°C): 100%
remaining at 24 h ([3]; n,n-dipropylbuttersäureamid, N,N-Dipropylbuttersäureamid (Nr. 7 aus Tabelle 4), 70°C): 97.6%
remaining at 24 h ([3]; n,n-diäthyl-3-methyl-benzolcarbonsäureamid, N,N-Diäthyl-3-methyl-benzolcarbonsäureamid (Nr. 11 Tabelle 4), 50°C): 95.5%
remaining at 24 h ([3]; n,n-diäthyl-3-methyl-benzolcarbonsäureamid, N,N-Diäthyl-3-methyl-benzolcarbonsäureamid (Nr. 11 Tabelle 4), 70°C): 60%

O=C1CCCCC1 [Cyclohexanon, reference compound]
H2O-Löslichkeit des Lösungsmittels (%) Gew.-% Lösungs-mittel in Wasser [1]: 3-4%

CCCN(CCC)C(=O)c1ccccc1 [compound 12]
Wasserlöslichkeit der Lösungsmittel (%) [1]: 0,5%

CCCCC(CC)C(=O)N(C)C (centres unmarked) [compound 9]
Wasserlöslichkeit der Lösungsmittel (%) [1]: 1,5%

CCCN(CCC)C(=O)C(C)C [compound 8]
Wasserlöslichkeit der Lösungsmittel (%) [1]: 1,6%

CCOC(=O)Nc1cccc(OC(=O)Nc2ccc(F)c(Cl)c2)c1 [Substanz 2, (3-Chlor-4-fluorphenyl)carbaminsäure-3(ethoxy-carbonyl)amino-phenylester]
remaining at 5 min, 2000 µM [4, 6]: 99.5%
remaining at 20 min, 2000 µM [4, 6]: 98.1%
remaining at 1 h, 2000 µM [4, 6]: 95.5%
remaining at 7 min, 2000 µM [4, 7]: 98.5%
remaining at 0.5 h, 2000 µM [4, 7]: 87.2%
remaining at 1.05 h, 2000 µM ([4]; dimethylformamid (technisch), Dimethylformid (technisch), 70°C, Abbauzeit 63 min, read-out: Wirkstoffgehalt): 57.4%
remaining at 7 min, 2000 µM ([4]; dimethylformamid (technisch), Dimethylformid (technisch), 80°C, read-out: Wirkstoffgehalt): 85.4%
remaining at 23 min, 2000 µM ([4]; dimethylformamid (technisch), Dimethylformid (technisch), 80°C, Abbauzeit 23 min, read-out: Wirkstoffgehalt): 54.7%
remaining at 37 min, 2000 µM ([4]; dimethylformamid (technisch), Dimethylformid (technisch), 80°C, Abbauzeit 37 min, read-out: Wirkstoffgehalt): 32.9%
remaining at 24 h, 2000 µM ([4]; isophoron, 80°C, Abbauzeit 24 Std., read-out: Wirkstoffgehalt): 93%
remaining at 5 min, 2000 µM [4, 8]: 92.3%
remaining at 20 min, 2000 µM [4, 8]: 76.5%
remaining at 1 h, 2000 µM [4, 8]: 52.8%
remaining at 5 min, 2000 µM [4, 9]: 100%
remaining at 0.5 h, 2000 µM [4, 9]: 96.7%
remaining at 3.5 h, 2000 µM ([4]; n-methylpyrrolidone, N-Methylpyrrolidon (rein 0,05% H2O), 30°C, Abbauzeit 210 min, read-out: Wirkstoffgehalt): 76.3%
Löslichkeit in % (g Substanz in 100 g Lösung bei Raumtemperatur (RT 20°C)) ([5]; in Cyclohexanon): 35,0%
Löslichkeit in % (g Substanz in 100 g Lösung bei Raumtemperatur (RT 20°C)) ([5]; in Dimethylformamid): 47,2%
Löslichkeit in % (g Substanz in 100 g Lösung bei Raumtemperatur (RT 20°C)) ([5]; in Dimethylsulfoxid): 55,3%
Löslichkeit in % (g Substanz in 100 g Lösung bei Raumtemperatur (RT 20°C)) ([5]; in Isophoron): 33,7%
Löslichkeit in % (g Substanz in 100 g Lösung bei Raumtemperatur (RT 20°C)) ([5]; in N-Methylpyrrolidon): 30,8%
Löslichkeit in (%) ([5]; in Säureamid Nr. 1, Rt): 39,9%
Löslichkeit in (%) ([5]; in Säureamid Nr. 2, Rt): 37,0%
Löslichkeit in (%) ([5]; in Säureamid Nr. 3, Rt): 43,8%
Löslichkeit in (%) ([5]; in Säureamid Nr. 4, Rt): 45,4%
Löslichkeit in (%) ([5]; in Säureamid Nr. 5, Rt): 41,6%
Löslichkeit in (%) ([5]; in Säureamid Nr. 6, Rt): 49,0%
Löslichkeit in (%) ([5]; in Säureamid Nr. 7, Rt): 38,8%
Löslichkeit in (%) ([5]; in Säureamid Nr. 8, Rt): 45,5%
Löslichkeit in (%) ([5]; in Säureamid Nr. 9, Rt): 29,1%
Löslichkeit in (%) ([5]; in Säureamid Nr. 10, Rt): 39,5%
Löslichkeit in (%) ([5]; in Säureamid Nr. 11, Rt): 29,4%
Löslichkeit in (%) ([5]; in Säureamid Nr. 12, Rt): 33,3%
Löslichkeit in (%) ([5]; in Säureamid Nr. 13, Rt): 31,1%

CC1=CC(=O)CC(C)(C)C1 [Isophoron, reference compound]
H2O-Löslichkeit des Lösungsmittels (%) Gew.-% Lösungs-mittel in Wasser [1]: 1,2%

Nc1cnn(-c2ccccc2)c(=O)c1Cl [Substanz 1, 1-Phenyl-4-amino-5-chlor-pyridazon-(6), reference compound]
Stabilität ([4]; in the solvents of Tabelle 2): keine Schwierigkeiten

CCN(CC)C(=O)c1cccc(C)c1 [compound 11]
Wasserlöslichkeit der Lösungsmittel (%) [1]: 2,2%

CCCC(=O)N(CCC)CCC [compound 7]
Wasserlöslichkeit der Lösungsmittel (%) [1]: 1,5%
